pIC50: −log10 of the molar value. Counter-ions that a name gives are not always drawn.
Tests used:
[1] = target: S. aureus 133 Translation; assay: S. aureus in vitro transcription-translation assay (firefly luciferase, S30 extract); assay type: biochemical; conditions: 50% inhibition of the translation of firefly luciferase
Text: For the construction of a reporter plasmid which can be used in an in vitro transcription-translation assay from S. aureus the plasmid pBESTluc (Promega Corporation, USA) is used. The E. coli tac promoter present in this plasmid in front of the firefly luciferase is replaced by the capA1 promoter with corresponding Shine-Dalgarno sequence from S. aureus. The primers CAPFor 5′-[…]-[…] GCCA-3′ and CAPRev 5′-[…]-3′ are used for this. The primer CAPFor contains the capA1 promoter, the ribosome binding site and the 5′ region of the luciferase gene. After PCR using pBESTluc as template it is possible to isolate a PCR product which contains the firefly luciferase gene with the fused capA1 promoter. This is, after restriction with ClaI and HindIII, ligated into the vector pBESTluc which has likewise been digested with ClaI and HindIII. The resulting plasmid pla can be replicated in E. coli and be used as template in the S. aureus in vitro transcription-translation test.
Six litres of BHI medium are inoculated with a 250 ml overnight culture of an S. aureus Strain and allowed to grow at 37° C. until the OD600 nm is 2-4. The cells are harvested by centrifugation and washed in 500 ml of cold buffer A (10 mM Tris acetate, pH 8.0, 14 mM magnesium acetate, 1 mM DTT, 1 M KCl). After renewed centrifugation, the cells are washed in 250 ml of cold buffer A with 50 mM KCl, and the resulting pellets are frozen at −20° C. for 60 min. The pellets are thawed on ice in 30 to 60 min and taken up to a total volume of 99 ml in buffer B (10 mM Tris acetate, pH 8.0, 20 mM magnesium acetate, 1 mM DTT, 50 mM KCl). 1.5 ml portions of lysostaphin (0.8 mg/ml) in buffer B are provided in 3 precooled centrifuge cups and each mixed with 33 ml of the cell suspension. The samples are incubated at 37° C., shaking occasionally, for 45 to 60 min, before 150 μl of a 0.5 M DTT solution are added. The lysed cells are centrifuged at 30 000×g and 4° C. for 30 min. The cell pellet is taken up in buffer B and then centrifuged again under the same conditions, and the collected supernatants are combined. The supernatants are centrifuged again under the same conditions, and 0.25 volumes of buffer C (670 mM Tris acetate, pH 8.0, 20 mM magnesium acetate, 7 mM Na3 phosphoenolpyruvate, 7 mM DTT, 5.5 mM ATP, 70 μM amino acids (complete from Promega), 75 μg of pyruvate kinase (Sigma, Germany)/ml are added to the upper ⅔ of the supernatant. The samples are incubated at 37° C. for 30 min. The supernatants are dialysed against 2 l of dialysis buffer (10 mM Tris acetate, pH 8.0, 14 mM magnesium acetate, 1 mM DTT, 60 mM potassium acetate) in a dialysis tube with a 3500 Da cut-off with one buffer change at 4° C. overnight. The dialysate is concentrated to a protein concentration of about 10 mg/ml by
covering the dialysis tube with cold PEG 8000 powder (Sigma, Germany) at 4° C. The S30 extracts can be stored in aliquots at −70° C.
The inhibition of protein biosynthesis of the compounds can be shown in an in vitro transcription-translation assay. The assay is based on the cell-free transcription and translation of firefly luciferase using the reporter plasmid pla as template and cell-free S30 extracts obtained from S. aureus. The activity of the resulting luciferase can be detected by luminescence measurement.
The amount of S30 extract or plasmid pla to be employed must be tested anew for each preparation in order to ensure an optimal concentration in the test. […] of the substance to be tested, dissolved in 5% DMSO, are introduced into an MTP. Then […] of a suitably concentrated plasmid solution pla are added. […]

S. aureus 133 [2] = assay: Systemic infection with S. aureus 133 (mouse sepsis model); assay type: in vivo, mouse (female CFW1); conditions: i.p. infection with S. aureus 133, i.v. therapy 30 minutes after infection, survival recorded for 6 days
Experimental: For this purpose, S. aureus 133 cells are cultured overnight in BH broth (Oxoid, Germany). The overnight culture was diluted 1:100 in fresh BH broth and expanded for 3 hours. The bacteria which are in the logarithmic phase of growth are centrifuged and washed twice with a buffered physiological saline solution. A cell suspension in saline solution with an extinction of 50 units is then adjusted in a photometer (Dr Lange LP 2W). After a dilution step (1:15), this suspension is mixed 1:1 with a 10% mucine suspension. 0.2 ml of this infection solution is administered i.p. per 20 g of mouse. This corresponds to a cell count of about 1-2×10^6 microbes/mouse. The i.v. therapy takes place 30 minutes after the infection. Female CFW1 mice are used for the infection experiment. The survival of the animals is recorded for 6 days. The animal model is adjusted so that untreated animals die within 24 h after the infection.

S. aureus T17 = assay: Minimum inhibitory concentration (MIC), biphenomycin-resistant S. aureus T17; assay type: cell-based, Staphylococcus aureus; conditions: Staphylococcus aureus; biphenomycin-resistant S. aureus T17
Experimental: (§1) The minimum inhibitory concentration (MIC) is the minimum concentration of an antibiotic with which the growth of a test microbe is inhibited over 18-24 h. The inhibitor concentration can in these cases be determined by standard microbiological methods (see, for example, The National Committee for Clinical Laboratory Standards. Methods for dilution antimicrobial susceptibility tests for bacteria that grow aerobically; approved standard-fifth edition. NCCLS document M7-A5 [ISBN 1-56238-394-9]. NCCLS, 940 West Valley Road, Suite 1400, Wayne, Pa. 19087-1898 USA, 2000). The test substances are thereby initially provided in 1:2 dilution series into 96-well round-bottom microtiter plates (Greiner) double-concentrated in 50 μl of test medium. The aerobically growing test microbes (e.g. staphylococci and enterococci), which are incubated overnight on Columbia blood agar plates (Becton-Dickinson), are, after resuspension in 0.9% NaCl, adjusted to a microbe count of about 5×10^7 microbes/ml and then diluted 1:150 in cation-adjusted MH medium (test medium). 50 μL of this suspension are pipetted onto the test preparations provided in the microtiter plates. The cultures are incubated at 37° C. for 18-24 hours. For microaerophilically growing microbes (e.g. streptococci), 2% lysed horse blood in the final concentration is added to the medium and the cultures are incubated in the presence of 5% CO2. The lowest substance concentration in each case at which no visible bacterial growth occurs any longer is defined as the MIC and is reported in μg/ml.
(§2) The minimum inhibitory concentration (MIC) is the minimum concentration of an antibiotic with which the growth of a test microbe is inhibited over 18-24 h. The inhibitor concentration can in these cases be determined by standard microbiological methods (see, for example, The National Committee for Clinical Laboratory Standards. Methods for dilution antimicrobial susceptibility tests for bacteria that grow aerobically; approved standard-fifth edition. NCCLS document M7-A5 [ISBN 1-56238-394-9]. NCCLS, 940 West Valley Road, Suite 1400, Wayne, Pa. 19087-1898 USA, 2000). The MIC of the compounds of the invention is determined in the liquid dilution test on the 96-well microtiter plate scale. The bacterial microbes are cultivated in a minimal medium (18.5 mM Na2HPO4, 5.7 mM KH2PO4, 9.3 mM NH4Cl, 2.8 mM MgSO4, 17.1 mM NaCl, 0.033 μg/ml thiamine hydrochloride, 1.2 μg/ml nicotinic acid, 0.003 μg/ml biotin, 1% glucose, 25 μg/ml of each proteinogenic amino acid with the exception of phenylalanine; [H.-P. Kroll; unpublished]) with the addition of 0.4% BH broth (test medium). In the case of Enterococcus faecium L4001, heat-inactivated fetal calf serum (FCS; GibcoBRL, Germany) is added to the test medium in a final concentration of 10%. Overnight cultures of the test microbes are diluted to an OD578 of 0.001 (to 0.01 in the case of enterococci) in fresh test medium, and incubated 1:1 with dilutions of the test substances (1:2 dilution steps) in test medium ([…]). The cultures are incubated at 37° C. for 18-24 hours; enterococci in the presence of 5% CO2.
(§3) The lowest substance concentration in each case at which no visible bacterial growth occurs any longer is defined as the MIC.
(§4) The minimum inhibitory concentration (MIC) is the minimum concentration of an antibiotic with which the growth of a test microbe is inhibited over 18-24 h. The inhibitor concentration can in these cases be determined by standard microbiological methods with modified medium in an agar dilution test (see, for example, The National Committee for Clinical Laboratory Standards. Methods for dilution antimicrobial susceptibility tests for bacteria that grow aerobically; approved standard-fifth edition. NCCLS document M7-A5 [ISBN 1-56238-394-9]. NCCLS, 940 West Valley Road, Suite 1400, Wayne, Pa. 19087-1898 USA, 2000). The bacterial microbes are cultivated on 1.5% agar plates which contain 20% defibrinated horse blood. […]

E. faecium L4001 = assay: Minimum inhibitory concentration (MIC), E. faecium L4001; assay type: cell-based, Enterococcus faecium; conditions: Enterococcus faecium, L4001, read-out: MIC E. faecium L4001
Experimental: as §2, §3

S. aureus 133 [3] = assay: Minimum inhibitory concentration (MIC), S. aureus 133; assay type: cell-based, Staphylococcus aureus; conditions: Staphylococcus aureus, 133, read-out: MIC S. aureus 133
Experimental: as §1, §2, §3, §4

NCCC[C@H](N)CNC(=O)CNC(=O)[C@@H]1Cc2cccc(c2)-c2ccc(O)c(c2)C[C@H](N)C(=O)N[C@@H](C[C@@H](O)CN)C(=O)N1 [Example 2, (8S,11S,14S)-14-Amino-11-[(2R)-3-amino-2-hydroxypropyl]-N-(2-{[(2S)-2,5-diaminopentyl]-amino}-2-oxoethyl)-17-hydroxy-10,13-dioxo-9,12-diazatricyclo[14.3.1.1^2,6]henicosa-1(20),2(21),3,5,16,18-hexaene-8-carboxamide tetrahydrochloride]
pIC50 [1]: 7.15
therapeutic effect ED100 (S. aureus 133 [2]): 1.25 mg/kg
MIC (S. aureus T17): 1 µg/mL
MIC (E. faecium L4001): 2 µg/mL
MIC (S. aureus 133 [3]): 1 µg/mL

From patent US20080275018A1, “ANTIBACTERIAL AMIDE-MACROCYCLES V” (AiCuris GmbH & Co. KG, priority 2005, published 2008)
